In experiment [1] the test system is OE21 (human squamous cell carcinoma of the esophagus). Briefly: In vitro antiproliferative activity, OE21. The format is cell-based. To be noted: OE21, 72 hours. How it is done: (§1) The in vitro antiproliferative assays for Compound (1) were conducted using a small panel of cancer cell lines including human squamous cell carcinoma of the esophagus (OE21, TE-8), human adenocarcinoma of the esophagus (OE33), and human uterine sarcoma (MES-SA, MES-SA-Dx5-Rx1). All cell lines were cultured in RPMI-1640 medium containing 10% FBS, and penicillin-streptomycin (culture medium), in a 5% CO2 incubator (37° C.). To each well of a 96 well plate (Becton, Dickinson and Company, 353219), 75 μL of cell suspension adjusted to a concentration of 4×10^4 cells/mL with the culture medium was added, and the cells were incubated overnight in a 5% CO2 incubator (37° C.). On the next day, 25 μL of Compound (1) in three-fold dilution series suspended in the culture medium was added to each well, and the resultant was incubated for 72 hours in a 5% CO2 incubator (37° C.). Then, cell viability was determined by CellTiter-Glo® Luminescent Cell Viability Assay (Promega) with 2013 EnVision™ Multilabel Reader (Perkin-Elmer, Wellesley, Mass.). Value of the wells containing cells without adding the test compounds was defined as 100% and the value of the wells containing no cells was defined as 0%. […] The P-gp susceptibility was calculated as the ratio of the IC50 value in MES-SA-Dx5-Rx1 cells, which overexpress P-gp, to the IC50 value in MES-SA cells.

Experiment [2] relates to TE-8 (human squamous cell carcinoma of the esophagus). Briefly: In vitro antiproliferative activity, TE-8. To be noted: TE-8, 72 hours. The format is cell-based. Here is the method: as §1
Experiment [3] deals with OE33 (human adenocarcinoma of the esophagus). Briefly: In vitro antiproliferative activity, OE33. The format is cell-based. To be noted: OE33, 72 hours. How it is done: as §1
Experiment [4] relates to COLO-704 subcutaneous xenograft. Briefly: Antitumor effects in the COLO-704 xenograft model in mice as monotherapy. The format is in vivo. How it is done:
A human ovarian cancer cell line COLO-704, which had been cultured in a RPMI-1640 containing 10% FBS, and penicillin-streptomycin, was adjusted to a concentration of 1×10^8 cells/mL with Hanks' Balanced Salt Solution to prepare a cell suspension. The cell suspension was inoculated in a volume of 100 μL into a subcutaneous part of a right flank of nude mice, 5 weeks of ages (CAnN.Cg-Foxn1nu/CrlCrlj, female, Charles River Laboratories Japan Inc.). Nine days after cell inoculation (Day 1), the shortest diameter and the longest diameter of a tumor in each mouse were measured by using an electronic digital caliper (Digimatic™ caliper, Mitutoyo Corporation), so as to calculate the volume of the tumor in accordance with the following calculation formulae: Tumor volume (mm^3)=Longest diameter (mm)×Shortest diameter (mm)×Shortest diameter (mm)/2 Relative tumor volume (RTV)=Tumor volume (day X)/Tumor volume (the first day) Relative body weight (RBW)=Body weight (day X)/Body weight (the first day)
On the basis of the volumes of tumors obtained on Day 1, the mice were grouped such that averages of the tumor volumes were substantially equal among the groups. The experiment was conducted on groups each consisting of six mice. The test compound was dissolved in DMSO and a solution was stored in the freezer before use. Immediately before the administration, the stock solution was diluted with saline. The test compound in saline was intravenously once-weekly administered at 20 μg/kg, 60 μg/kg, or 180 μg/kg for 2 weeks (on Day 1 and Day 8).

The subject of experiment [5] is MES-SA (human uterine sarcoma) xenograft. Briefly: Antitumor effects in MES-SA soft tissue sarcoma xenograft model in mice as monotherapy. To be noted: 180 μg/kg intravenously on Day 1 and Day 8. The format is in vivo. How it is done:
A human uterine sarcoma cell line MES-SA, which had been cultured in an RPMI-1640 containing 10% FBS, and penicillin-streptomycin, was adjusted to a concentration of 2×10^8 cells/mL with Hanks' Balanced Salt Solution to prepare a cell suspension, and the suspension was mixed with Geltrex® (Thermo Fisher Scientific Inc., #A1413202) in a ratio of 1:1 to prepare a cell suspension in a concentration of 1×10^8 cells/mL. The cell suspension was inoculated in a volume of 100 μL into a subcutaneous part of a right flank of nude mice, 6 weeks of ages (CAnN.Cg-Foxnlnu/CrlCrlj, female, Charles River Laboratories Japan Inc.). Six days after cell inoculation (Day 1), the shortest diameter and the longest diameter of a tumor in each mouse were measured by using an electronic digital caliper (Digimatic™ caliper, Mitutoyo Corporation), so as to calculate the volume of the tumor in accordance with the following calculation formulae: Tumor volume (mm^3)=Longest diameter (mm)×Shortest diameter (mm)×Shortest diameter (mm)/2 Relative tumor volume (RTV)=Tumor volume (day X)/Tumor volume (the first day)
On the basis of the volumes of tumors obtained on Day 1, the mice were grouped such that averages of the tumor volumes were substantially equal among the groups. The experiment was conducted on groups each consisting of 6 mice. […]

Experiment [6] deals with HT-1080 (human fibrosarcoma) xenograft. Briefly: Antitumor effects in HT-1080 soft tissue sarcoma xenograft model in mice as monotherapy. The format is in vivo. To be noted: 180 μg/kg intravenously on Day 1 and Day 8. How it is done: A human fibrosarcoma cell line HT-1080, which had been cultured in an E-MEM containing 10% FBS, NEAA and antibiotics was adjusted to a concentration of 3×10^7 cells/mL with medium to prepare a cell suspension. The cell suspension was inoculated in a volume of 100 μL into a subcutaneous part of a right flank of athymic mice (CAnN.Cg-Foxnlnu/CrlCrlj, female, 6 weeks old, Charles River Japan Inc.). Six days after cell inoculation (Day 1), the length and the width of a tumor in each mouse were measured by using an electronic digital caliper (Mitutoyo Corporation), so as to calculate the volume of the tumor in accordance with the following calculation formula: Tumor volume (mm^3)=Longest diameter (mm)×Shortest diameter (mm)×Shortest diameter (mm)/2 Relative tumor volume (RTV)=Tumor volume (day X)/Tumor volume (the first day)
On the basis of TV, the mice were randomly grouped (Day 1). Each group was consisted in six mice. Compound (1) was dissolved in DMSO and a solution was stored in the freezer before use. Compound (1) (180 μg/kg) was diluted with saline and intravenously injected on Day 1 and Day 8.

With `C=C1C[C@@H]2CC[C@@]34C[C@H]5O[C@H]6[C@@H](O3)[C@H]3O[C@H](CC[C@@H]3O[C@H]6C5O4)CC(=O)O[C@@H]3[C@@H](C)[C@@H]4O[C@@H]5C[C@]6(C[C@@H]7O[C@]8(C[C@H](C)[C@@H]9O[C@H](CN)[C@H](O)C[C@@H]9O8)C[C@H](C)[C@@H]7O6)O[C@@H]5C[C@@H]4O[C@H]3C[C@H]3O[C@@H](CC[C@@H]1O2)C[C@@H](C)C3=C` [Compound (1)], the antiproliferative activity entry in experiment [1], in experiment [2] and in experiment [3] was “potent antiproliferative agent” each time. Also, the antitumor effect result in experiment [4] (60 μg/kg intravenously on Day 1 and Day 8) is recorded as “tumor growth delay”; in experiment [4] (180 μg/kg intravenously on Day 1 and Day 8), “tumor regression”. In addition, the “eradication of xenograft tumors” value in experiment [4] (180 μg/kg, on Day 22) is reported as “completely eradicated the xenograft tumors in all mice”. In addition, the antitumor activity entry is “tumor growth delay” in experiment [5] and “tumor regression” in experiment [6].

For the origin of these results see patent publication US11725015B2, “Macrocyclic compound and uses thereof” (President and Fellows of Harvard College, priority 2017, dated 2023).
